Each block holds one molecule with its values, some of them ahead of it.
What was measured:
phosphorylated mTOR = biological target: T1, phosphorylated mTOR (Sus scrofa, UniProt F1RHR8); experiment: Western blot analysis of myocardium of transplanted hearts, phosphorylated mTOR; format: in vivo, pig; conditions: experiment 67 (group III), after treatment with temsirolimus, compared to control (Co)
T1 construct: heart samples were homogenized in Laemmli-extraction-buffer; from tissue; host or cells: myocardium of GTKO/hCD46/hTM pig donor hearts transplanted orthotopically into baboons (Papio anubis); control: non-transplanted pig heart
Protocol: For protein extraction, heart samples were homogenized in Laemmli-extraction-buffer, and the protein content was estimated by the bicinchoninic acid (BCA, Merck, Darmstadt, Germany) protein assay. 20 μg of total protein was separated by 10% SDS-PAGE and transferred to polyvinylidene difluoride (PDVF) membranes (Millipore, Billerica, USA) by electroblotting. Membranes were washed in Tris-buffered saline solution with 0.1% Tween-20 (Merck) (TBS-T) and blocked in 5% w/v fat-free milk powder (Roth, Karlsruhe, Germany) for 1 h at room temperature. Then membranes were washed again in TBS-T and incubated in 5% w/v BSA (Roth) of the appropriate primary antibody overnight at 4° C. […] Bound antibodies were detected using an enhanced chemiluminescence detection reagent (ECL Advance Western Blotting Detection Kit, GE Healthcare, Munich, Germany) and appropriate x-ray films (GE Healthcare). […]
For protein extraction, heart samples were homogenized in Laemmli sample buffer and the protein content was estimated using the bicinchoninic acid (BCA, Merck) protein assay. […] Bound antibodies were detected using an enhanced chemiluminescence detection reagent (ECL Advance Western Blotting Detection Kit, GE Healthcare) and appropriate X-ray films (GE Healthcare). […]

[1] = tested on: transplanted GT-KO/hCD46/hTM porcine donor heart; experiment: Life-supporting orthotopic pig-to-baboon cardiac xenotransplantation; format: in vivo, baboon (Papio Anubis)
Text: Seven juvenile pigs of cross-bred genetic backround (German Landrace and Large White, blood group 0) served as donors for heart xenotransplantation. All organs were homozygous for alpha 1,3-galactosyltransferase knockout (GT-KO), and transgeneic for hCD46/thrombomodulin (hTM) (Revivicor, Blacksburg, Va., USA and Institute for Molecular Animal Breeding and Biotechnology, Gene Center, Faculty of Veterinary Medicine, Ludwig-Maximilians-University, Munich, Germany). Localisation and stability of hCD46/hTM expression was verified post-mortem by immunohistochemistry (FIG. 15). Donor heart function and absence of valvular defects were evaluated 7 days prior to transplantation by echocardiographies. Seven male captive-bred baboons (Papio Anubis, blood groups B and AB) were used as recipients.
The recipient's thorax was opened at midline. Unfractionated heparin (500 IU/kg; Heparin-Natrium-25000-ratiopharm, ratiopharm GmbH, Ulm, Germany) was given and the heart-lung machine connected, using both caval veins and the ascending aorta. Cardiopulmonary bypass commenced and the recipient cooled (30° C. in group I, 34° C. in groups II and III). After crossclamping the ascending aorta, the recipient's heart was excised at the atrial levels, both large vessels were cut. The porcine donor heart was transplanted applying Shumway's and Lower's technique (cf. reference 8).
Immunosuppression was based on Mohiuddin's regimen (cf. reference 5; there were changes as indicated in the following), with C1 esterase inhibitor instead of cobra venom factor for complement inhibition. Induction consisted of anti-CD20 antibody (Mabthera; Roche Pharma AG, Grenzach-Wyhlen, Germany), ATG (Thymoglobuline, Sanofi-Aventis Germany GmbH, Frankfurt, Germany), and either anti-CD40 antibody (mouse/rhesus chimeric IgG4 clone 2C10R4, NIH Nonhuman Primate Reagent Resource, Mass Biologicals, Boston, Mass., USA; courtesy of Keith Reimann) or humanised anti-CD40L pasylated Fab (production: Wacker-Chemie, Burghausen, Germany; purification: XL-protein GmbH, Freising, Germany; courtesy of Arne Skerra, cf. reference 9). Maintenance immunosuppression consisted of MMF (CellCept, Roche, Basle, Switzerland; trough level 2-3 μg/ml), either anti-CD40 antibody or anti-CD40L pasylated Fab, methylprednisolone (Urbasone solubile, Sanofi-Aventis Germany GmbH, Frankfurt, Germany). Anti-inflammatory therapy included II-6-receptor antibody (RoActemra, Roche Pharma AG, Grenzach-Wyhlen, Germany), TNFα inhibitor (Enbrel, Pfizer Pharma GmbH, Berlin, Germany) and II-1-receptor antagonist (Kineret, Swedish Orphan Biovitrum GmbH, Martinsried, Germany). Additive therapy: acetylsalicylic acid (Aspirin, Bayer Vital GmbH, Leverkusen, Germany), unfractionated heparin (Heparin-Natrium-25000-ratiopharm, ratiopharm GmbH, Ulm, Germany), C1 esterase inhibitor (Berinert, CSL Behring GmbH, Hattersheim, Germany), ganciclovir (Cymevene, Roche Pharma AG, Grenzach-Wyhlen, Germany), cefuroxime (Cefuroxim Hikma, Hikma Pharma GmbH, Martinsried, Germany) and epoetin beta (NeoRecormon 5000IU, Roche Pharma AG, Grenzach-Wyhlen, Germany).
Starting from 10 mg/kg/d, methylprednisolone was tapered down 1 mg/kg every 10 days in group I and II; in group III, methylprednisolone was tapered down to 0.1 mg/kg within 19 days. […]
Transthoracic echocardiographies were done in analgosedation at regular intervals using an HP Sonos 7500 (HP Inc., Palo Alto, Calif., USA); midpapillary short axis views were recorded. […]

PCNA = experiment: Western blot analysis of myocardium of transplanted hearts, PCNA; format: in vivo, pig; conditions: experiment 67 (group III), after treatment with temsirolimus, compared to control (Co)
Protocol: For protein extraction, heart samples were homogenized in Laemmli-extraction-buffer, and the protein content was estimated by the bicinchoninic acid (BCA, Merck, Darmstadt, Germany) protein assay. 20 μg of total protein was separated by 10% SDS-PAGE and transferred to polyvinylidene difluoride (PDVF) membranes (Millipore, Billerica, USA) by electroblotting. Membranes were washed in Tris-buffered saline solution with 0.1% Tween-20 (Merck) (TBS-T) and blocked in 5% w/v fat-free milk powder (Roth, Karlsruhe, Germany) for 1 h at room temperature. Then membranes were washed again in TBS-T and incubated in 5% w/v BSA (Roth) of the appropriate primary antibody overnight at 4° C. The following antibodies were used: rabbit anti-human pmTOR (#5536; Cell Signaling, Frankfurt, Germany) and mouse anti-human PCNA (#2586; Cell Signalling). After washing, membranes were incubated in 5% w/v fat-free milk powder with a horseradish peroxidase labelled secondary antibody for 1 h at room temperature. Bound antibodies were detected using an enhanced chemiluminescence detection reagent (ECL Advance Western Blotting Detection Kit, GE Healthcare, Munich, Germany) and appropriate x-ray films (GE Healthcare). After detection, membranes were stripped (Elution buffer: 2% SDS, 62.5 mM Tris/HCl, pH 6.7 and 100 mM […] for 30 min at 70° C.) and incubated with an appropriate second antibody. […]

[2] = biological target: T2, porcine growth hormone receptor (GHR) (pig, UniProt P19756 19-638); experiment: ligand immunohistochemistry: rat GH on liver and kidney paraffin sections of control and GHR-KO pigs, detected with anti-rat GH antibody and DAB
T2 construct: whole, on cells; Endogenous receptor in tissue sections of control pigs; GHR-KO pigs (frameshift in exon 3) lack it; also called porcine GHR
T2 sequence (looked up): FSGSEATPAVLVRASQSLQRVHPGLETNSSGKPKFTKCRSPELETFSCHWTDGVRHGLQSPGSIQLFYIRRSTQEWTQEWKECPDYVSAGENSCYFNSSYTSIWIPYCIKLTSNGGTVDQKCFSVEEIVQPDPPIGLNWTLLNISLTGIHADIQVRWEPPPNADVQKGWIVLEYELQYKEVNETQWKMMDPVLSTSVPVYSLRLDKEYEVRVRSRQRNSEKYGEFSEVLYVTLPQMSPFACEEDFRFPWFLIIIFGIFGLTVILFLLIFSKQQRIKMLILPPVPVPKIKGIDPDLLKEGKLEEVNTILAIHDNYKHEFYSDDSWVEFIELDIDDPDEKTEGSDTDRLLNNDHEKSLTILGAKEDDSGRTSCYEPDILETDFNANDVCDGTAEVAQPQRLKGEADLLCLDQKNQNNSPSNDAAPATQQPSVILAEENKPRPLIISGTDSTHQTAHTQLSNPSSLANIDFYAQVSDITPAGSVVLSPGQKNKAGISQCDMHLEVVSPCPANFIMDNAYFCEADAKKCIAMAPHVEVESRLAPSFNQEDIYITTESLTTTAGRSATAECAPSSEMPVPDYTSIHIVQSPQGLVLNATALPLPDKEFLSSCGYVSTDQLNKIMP
Protocol: Liver and kidney tissue of GHR-KO and control pigs was fixed overnight in 4% formaldehyde and routinely embedded in paraffin. Paraffin sections were dewaxed, and endogenous peroxidase and biotin were blocked with 1% H₂O₂ in Tris-buffered saline (TBS) for 15 min and by using the avidin/biotin blocking kit (no. SP-2001; Vector Laboratories), respectively. After blocking with 0.5% fish gelatin for 30 min, the slides were incubated in 0.5 μg/mL recombinant rat GH (no. 16343667, ImmunoTools) in 0.2% fish gelatin solution overnight at 4° C. They were then washed 3 times for 5 min in TBS and incubated in goat anti-rat GH polyclonal antibody solution (dilution 1:2,400, no. AF1566, R&D Systems) for 6 h at room temperature. After 3 washing steps in TBS (10 min each), the slides were incubated in biotinylated rabbit anti-goat IgG solution (dilution 1:100, no. BA-5000, Vector Laboratories) for 1 h at room temperature, washed 3 times for 10 min in TBS, and finally incubated with horseradish peroxidase-labelled avidin biotin complex for 30 min (no. PK-6100, VECTASTAIN Elite ABC-Peroxidase kit, Vector Laboratories). Immunoreactivity was visualized using 3,3′-diaminobenzidine tetrahydrochloride dihydrate (DAB) (brown color). Nuclear counterstaining was performed with Mayer's hemalum (blue color). […]

[3] = group III, with antihypertensive treatment and early glucocorticoid tapering

T1 sequence (F1RHR8 1-2548): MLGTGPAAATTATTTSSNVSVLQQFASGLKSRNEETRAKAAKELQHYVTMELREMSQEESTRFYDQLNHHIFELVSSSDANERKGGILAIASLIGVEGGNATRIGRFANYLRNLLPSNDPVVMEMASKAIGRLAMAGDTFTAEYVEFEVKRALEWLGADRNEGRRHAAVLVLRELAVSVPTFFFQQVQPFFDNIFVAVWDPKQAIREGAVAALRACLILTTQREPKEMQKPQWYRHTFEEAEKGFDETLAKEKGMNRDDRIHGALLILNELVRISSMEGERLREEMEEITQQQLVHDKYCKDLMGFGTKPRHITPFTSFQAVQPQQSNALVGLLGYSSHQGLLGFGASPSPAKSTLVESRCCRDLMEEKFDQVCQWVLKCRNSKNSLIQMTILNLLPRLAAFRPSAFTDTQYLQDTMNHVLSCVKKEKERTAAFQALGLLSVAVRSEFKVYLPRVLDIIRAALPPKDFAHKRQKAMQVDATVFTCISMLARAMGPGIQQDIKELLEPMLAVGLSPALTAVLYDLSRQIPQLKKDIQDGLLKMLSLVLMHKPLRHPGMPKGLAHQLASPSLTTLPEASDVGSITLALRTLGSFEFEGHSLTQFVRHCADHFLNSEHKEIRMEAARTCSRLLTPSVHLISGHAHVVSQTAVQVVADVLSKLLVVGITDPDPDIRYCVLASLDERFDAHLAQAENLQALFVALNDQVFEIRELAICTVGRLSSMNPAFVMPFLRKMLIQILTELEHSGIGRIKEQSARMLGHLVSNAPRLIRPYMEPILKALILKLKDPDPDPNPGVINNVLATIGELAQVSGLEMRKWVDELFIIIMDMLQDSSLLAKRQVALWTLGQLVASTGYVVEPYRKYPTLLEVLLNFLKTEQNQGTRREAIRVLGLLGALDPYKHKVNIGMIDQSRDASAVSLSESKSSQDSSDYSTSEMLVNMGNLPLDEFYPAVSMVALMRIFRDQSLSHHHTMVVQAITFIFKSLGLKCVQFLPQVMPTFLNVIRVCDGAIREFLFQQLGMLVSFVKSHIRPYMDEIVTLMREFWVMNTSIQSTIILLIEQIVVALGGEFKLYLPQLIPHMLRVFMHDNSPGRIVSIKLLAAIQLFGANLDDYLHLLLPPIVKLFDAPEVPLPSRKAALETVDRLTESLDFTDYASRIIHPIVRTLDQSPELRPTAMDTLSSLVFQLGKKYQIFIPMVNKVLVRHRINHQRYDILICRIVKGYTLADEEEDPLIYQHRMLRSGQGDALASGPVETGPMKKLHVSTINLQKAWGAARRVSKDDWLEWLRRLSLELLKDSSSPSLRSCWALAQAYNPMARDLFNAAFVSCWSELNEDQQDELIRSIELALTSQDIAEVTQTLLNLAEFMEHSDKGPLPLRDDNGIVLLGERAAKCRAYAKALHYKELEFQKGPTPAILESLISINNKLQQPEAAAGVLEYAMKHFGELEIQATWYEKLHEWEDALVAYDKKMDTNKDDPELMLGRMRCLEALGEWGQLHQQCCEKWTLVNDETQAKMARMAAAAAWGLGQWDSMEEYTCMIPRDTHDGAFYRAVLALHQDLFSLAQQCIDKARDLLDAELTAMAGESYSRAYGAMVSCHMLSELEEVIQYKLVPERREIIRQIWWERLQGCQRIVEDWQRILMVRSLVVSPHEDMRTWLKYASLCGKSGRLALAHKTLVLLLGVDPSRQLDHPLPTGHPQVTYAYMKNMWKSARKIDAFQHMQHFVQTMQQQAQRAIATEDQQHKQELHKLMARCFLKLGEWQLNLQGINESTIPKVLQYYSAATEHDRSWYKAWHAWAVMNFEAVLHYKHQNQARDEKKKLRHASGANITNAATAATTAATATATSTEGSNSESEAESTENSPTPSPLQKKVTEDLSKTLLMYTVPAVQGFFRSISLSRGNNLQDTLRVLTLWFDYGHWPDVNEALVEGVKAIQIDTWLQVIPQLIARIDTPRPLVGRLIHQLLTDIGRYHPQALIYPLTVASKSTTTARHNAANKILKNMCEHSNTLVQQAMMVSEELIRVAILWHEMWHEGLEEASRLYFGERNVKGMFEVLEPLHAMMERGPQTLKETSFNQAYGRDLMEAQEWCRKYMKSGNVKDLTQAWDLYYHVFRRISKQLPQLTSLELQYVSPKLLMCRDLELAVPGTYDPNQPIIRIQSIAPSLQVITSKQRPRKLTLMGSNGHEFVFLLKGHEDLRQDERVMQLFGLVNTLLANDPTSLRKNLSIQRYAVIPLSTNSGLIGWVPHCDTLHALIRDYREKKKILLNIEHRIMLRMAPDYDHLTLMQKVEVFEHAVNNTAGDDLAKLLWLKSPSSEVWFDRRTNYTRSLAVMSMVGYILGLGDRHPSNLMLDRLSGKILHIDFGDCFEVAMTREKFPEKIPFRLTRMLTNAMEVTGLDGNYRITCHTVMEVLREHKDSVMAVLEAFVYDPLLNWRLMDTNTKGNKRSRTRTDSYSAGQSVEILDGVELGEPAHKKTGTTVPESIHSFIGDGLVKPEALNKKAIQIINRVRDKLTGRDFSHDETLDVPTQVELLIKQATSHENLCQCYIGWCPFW

phosphorylated mTOR in myocardium (Western blot) (phosphorylated mTOR): downregulated
Molecule: CO[C@H]1C[C@@H]2CC[C@@H](C)[C@@](O)(O2)C(=O)C(=O)N2CCCC[C@H]2C(=O)O[C@H]([C@H](C)C[C@@H]2CC[C@@H](OC(=O)C(C)(CO)CO)[C@H](OC)C2)CC(=O)[C@H](C)/C=C(\C)[C@@H](O)[C@@H](OC)C(=O)[C@H](C)C[C@H](C)/C=C/C=C/C=C/1C [temsirolimus]
pathologic findings described for groups I and II (heart and liver failure, graft overgrowth, myocardial hypertrophy) ([1]; group III recipients: antihypertensive treatment, early glucocorticoid weaning and additional temsirolimus medication): absent
cardiac overgrowth ([1]; group III, combination of blood pressure lowering, early cortisone tapering and temsirolimus): successfully counteracted
myocardial hypertrophy of the transplanted heart [1, 3]: mitigated
obliteration of LV cavity [1, 3]: omitted
growth of the cardiac graft (LV mass) after discontinuation of temsirolimus ([1]; recipients 13 and 14, i.v. temsirolimus discontinued on day 175 and on day 161): increased growth of the cardiac graft
PCNA in myocardium (Western blot) (PCNA): downregulated

binding result [2]: binds
B1: recombinant rat GH (no. 16343667, ImmunoTools) (ligand, UniProt P01244 27-216, looked up)
chain: FPAMPLSSLFANAVLRAQHLHQLAADTYKEFERAYIPEGQRYSIQNAQAAFCFSETIPAPTGKEEAQQRTDMELLRFSLLLIQSWLGPVQFLSRIFTNSLMFGTSDRVYEKLKDLEEGIQALMQELEDGSPRIGQILKQTYDKFDANMRSDDALLKNYGLLSCFKKDLHKAETYLRVMKCRRFAESSCAF
notes: Used at 0.5 ug/mL as the ligand in ligand immunohistochemistry; Detected with goat anti-rat GH polyclonal antibody; also called growth hormone
